Consider one compound from patent US20150238487A1, “NOVEL ERGOLINE DERIVATIVES AND USES THEREOF” (MAP Pharmaceuticals, Inc., priority 2012, published 2015).

Assay [1] deals with T1, CCK2 (Homo sapiens, UniProt P32239).
T1 construct: expressed in transfected cells; host or cells: CHO-AEQ
The assay is described as follows: Aequorin assay, Cholecystokinin CCK2. The class given is cell-based. The settings on record: antagonism, CHO-AEQ. As to the method:
(§1) Receptor […] activity assays were performed using 8′OH-2-CF3-dihydroergotamine (8′OH-2-CF3-DHE). Table 1 summarizes the cell lines (CHO-K1/HEK293 transfected with relevant human receptor) and the assays performed to detect any agonist or antagonist activity.
(§2) Aequorin assays were conducted to monitor activity for 8′OH-2CF3-dihydroergotamine (8′OH-2CF3-DHE) against the receptors indicated in Table 1 above (except for mGlu3 and mGlu5). CHO-K1 cells coexpressing mitochondrial apoaequorin and the recombinant human receptor of interest were grown to mid-log phase in culture media without antibiotics and then detached with PBS-EDTA, centrifuged and resuspended in assay buffer (DMEM/HAM's F12 with HEPES, without phenol red+0.1% BSA, protease free) at a concentration of 1×10^6 cell/mL. […]
(§3) 50 μL of the cell suspension was mixed with 50 μL of test or reference agonist in a 96-well plate. The resulting emission of light was recorded using Hamamatsu Functional Drug Screening System 6000 (FDSS 6000) luminometer. […]
(§4) To standardize the emission of recorded light (and determine of the “100% signal”) across plates and across different experiments, some wells contained 100 μM digitonin or a saturating concentration of ATP (20 μM).

The target of assay [2] is T2, Adrenergic α2C (Homo sapiens, UniProt P18825).
T2 construct: expressed in transfected cells; host or cells: CHO-K1 (membrane extracts)
T2 sequence (P18825 whole entry): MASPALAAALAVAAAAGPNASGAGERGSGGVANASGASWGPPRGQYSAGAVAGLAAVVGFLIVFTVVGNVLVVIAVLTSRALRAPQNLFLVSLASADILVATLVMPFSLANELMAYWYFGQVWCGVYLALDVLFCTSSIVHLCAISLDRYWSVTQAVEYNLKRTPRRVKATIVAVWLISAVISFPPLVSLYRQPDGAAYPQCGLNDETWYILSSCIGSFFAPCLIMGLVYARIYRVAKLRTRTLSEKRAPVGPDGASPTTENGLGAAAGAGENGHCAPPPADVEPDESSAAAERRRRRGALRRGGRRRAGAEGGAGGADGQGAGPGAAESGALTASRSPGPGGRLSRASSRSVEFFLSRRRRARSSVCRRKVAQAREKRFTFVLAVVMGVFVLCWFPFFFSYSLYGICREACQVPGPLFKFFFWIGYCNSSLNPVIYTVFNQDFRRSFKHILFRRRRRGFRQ
The assay is described as follows: GTPγ[35S] assay, Adrenergic α2C. The class given is biochemical. The settings on record: antagonism, CHO-K1 membranes, read-out: Activity (Antagonism: IC50), Adrenergic a2C. As to the method:
as §1
(§5) GTPγS studies were conducted to monitor agonist activity for 8′OH-2CF3-dihydroergotamine (8′OH-2CF3-DHE) against the receptors indicated in Table 1 above. Reagents used were the following: Assay buffer (20 mM HEPES, pH 7.4; 100 mM NaCl; 10 μg/mL saponin; 30 mM MgCl2); Membranes (recombinant human receptor membrane extracts were thawed on ice and diluted in assay buffer to give 1000 μg/mL ([…]) and kept on ice); GDP (diluted in assay buffer to give 30 μM solution (3 μM final concentration); beads (PVT-WGA (Amersham, RPNQ001), diluted in assay buffer at 25 mg/mL (0.25 mg/10 μL)); GTPγ^35S (Perkin Elmer, NEG030X), diluted in assay buffer to give 0.1 nM (final concentration); and ligand (agonist/antagonist diluted in assay buffer).
(§6) Membranes were mixed with GDP (1:1) and incubated for at least 15 minutes on ice. In parallel GTPγ^35S was mixed with the beads (1:1) just before starting the reaction. […] The plates were then centrifuged for 10 minutes at 2000 rpm and incubated at room temperature for 1 hour and counted for 1 min/well with a Perkin Elmer TopCount reader.

Assay [3] has as its target T3, OX1 (Homo sapiens, UniProt O43613).
T3 construct: expressed in transfected cells; host or cells: CHO-AEQ (CHO-K1 coexpressing mitochondrial apoaequorin)
The assay is described as follows: Aequorin assay, Orexin OX1. The class given is cell-based. The settings on record: antagonism, CHO-AEQ. How it is done:
as §1, §2, §3, §4

The target of assay [4] is T4, Serotonin 5-HT1F (Homo sapiens, UniProt P30939).
T4 construct: expressed in transfected cells; host or cells: CHO-K1
T4 sequence (P30939 whole entry): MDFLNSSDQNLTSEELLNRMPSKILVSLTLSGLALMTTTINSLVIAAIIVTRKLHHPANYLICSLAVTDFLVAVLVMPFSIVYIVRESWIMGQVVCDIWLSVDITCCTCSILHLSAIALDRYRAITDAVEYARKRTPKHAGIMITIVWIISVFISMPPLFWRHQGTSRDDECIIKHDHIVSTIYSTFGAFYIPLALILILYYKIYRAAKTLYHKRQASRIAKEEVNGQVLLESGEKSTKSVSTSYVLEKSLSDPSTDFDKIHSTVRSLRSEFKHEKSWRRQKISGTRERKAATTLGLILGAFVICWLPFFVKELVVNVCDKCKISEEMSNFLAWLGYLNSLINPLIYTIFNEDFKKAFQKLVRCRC
The assay is described as follows: cAMP HTRF assay, Serotonin 5-HT1F. Type of assay: cell-based. The settings on record: CHO-K1, cAMP. As to the method: as §1
cAMP HTRF (Gi) studies were conducted to monitor activity for 8′OH-2CF3-dihydroergotamine (8′OH-2CF3-DHE) against the receptors indicated in Table 1 above. Cells expressing the human recombinant receptor of interest were grown in media without antibiotic and detached by gentle flushing with PBS-EDTA (5 mM EDTA), recovered by centrifugation and resuspended in assay buffer (KRH: 5 mM KCl, 1.25 mM MgSO4, 124 mM NaCl, 25 mM HEPES, 13.3 mM glucose, 1.25 mM KH2PO4, 1.45 mM CaCl2, 0.5 g/L BSA). Dose response curves were performed in parallel with the reference compounds. For agonist tests (96-well plates), 12 μL of cells was mixed with 6 μL of the test compound at increasing concentrations and 6 μL of forskolin and then incubated for 30 minutes at room temperature. Lysis buffer was added and after a 1 hour incubation, cAMP concentrations was determined according to the manufacturer specification with the HTRF kit. […] Lysis buffer was added and after a 1 hour incubation, cAMP concentrations were determined according to the manufacturer specification, with the HTRF kit.

Assay [5] addresses T5, Dopamine D3 (Homo sapiens, UniProt P35462).
T5 construct: expressed in transfected cells; host or cells: CHO-K1 (membrane extracts)
The assay is described as follows: GTPγ[35S] assay, Dopamine D3. The class given is biochemical. The settings on record: agonism, CHO-K1 membranes. As to the method: as §1, §5, §6

Assay [6] concerns the target T6, Adrenergic α1A (Homo sapiens, UniProt P35348).
T6 construct: expressed in transfected cells; host or cells: CHO-K1 mAeq
The assay is described as follows: Aequorin assay, Adrenergic α1A. Type of assay: cell-based. The note with it: antagonism, CHO-K1 mAeq, read-out: Activity (Antagonism: IC50), Adrenergic a1A. As to the method: as §1, §2, §3, §4

Assay [7] has as its target T7, Serotonin 5-HT1D (Homo sapiens, UniProt P28221).
T7 construct: expressed in transfected cells; host or cells: CHO-K1 (membrane extracts)
The assay is described as follows: GTPγ[35S] assay, Serotonin 5-HT1D. The note with it: agonism, CHO-K1 membranes. The class given is biochemical. As to the method: as §1, §5, §6

Assay [8] concerns the target T8, Dopamine D4 (Homo sapiens, UniProt P21917).
T8 construct: expressed in transfected cells; host or cells: CHO-K1 (membrane extracts)
The assay is described as follows: GTPγ[35S] assay, Dopamine D4. Type of assay: biochemical. The note with it: antagonism, CHO-K1 membranes. As to the method:
as §1, §5, §6

T1 sequence (P32239 whole entry): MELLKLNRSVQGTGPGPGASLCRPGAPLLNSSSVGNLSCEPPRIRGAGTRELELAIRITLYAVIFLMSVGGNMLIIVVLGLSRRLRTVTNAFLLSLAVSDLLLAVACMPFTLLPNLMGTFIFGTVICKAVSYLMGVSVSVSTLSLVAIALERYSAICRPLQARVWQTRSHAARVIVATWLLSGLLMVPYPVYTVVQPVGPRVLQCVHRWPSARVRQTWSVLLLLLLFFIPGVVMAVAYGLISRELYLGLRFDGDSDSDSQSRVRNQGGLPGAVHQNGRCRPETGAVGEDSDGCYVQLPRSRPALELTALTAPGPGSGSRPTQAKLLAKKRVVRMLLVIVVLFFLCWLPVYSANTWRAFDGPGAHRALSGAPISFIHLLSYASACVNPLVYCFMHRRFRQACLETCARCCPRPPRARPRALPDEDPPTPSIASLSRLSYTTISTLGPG
T3 sequence (O43613 whole entry): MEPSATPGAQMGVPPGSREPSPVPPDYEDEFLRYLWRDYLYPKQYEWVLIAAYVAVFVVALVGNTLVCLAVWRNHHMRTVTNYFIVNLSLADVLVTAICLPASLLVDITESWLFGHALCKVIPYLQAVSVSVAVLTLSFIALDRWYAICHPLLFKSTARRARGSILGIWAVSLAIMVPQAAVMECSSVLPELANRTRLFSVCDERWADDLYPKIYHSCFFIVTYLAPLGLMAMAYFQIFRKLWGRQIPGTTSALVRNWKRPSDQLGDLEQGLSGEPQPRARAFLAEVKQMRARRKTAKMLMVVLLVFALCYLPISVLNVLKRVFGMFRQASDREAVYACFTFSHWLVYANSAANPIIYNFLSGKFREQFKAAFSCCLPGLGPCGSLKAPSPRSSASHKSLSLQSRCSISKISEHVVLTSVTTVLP
T6 sequence (P35348 whole entry): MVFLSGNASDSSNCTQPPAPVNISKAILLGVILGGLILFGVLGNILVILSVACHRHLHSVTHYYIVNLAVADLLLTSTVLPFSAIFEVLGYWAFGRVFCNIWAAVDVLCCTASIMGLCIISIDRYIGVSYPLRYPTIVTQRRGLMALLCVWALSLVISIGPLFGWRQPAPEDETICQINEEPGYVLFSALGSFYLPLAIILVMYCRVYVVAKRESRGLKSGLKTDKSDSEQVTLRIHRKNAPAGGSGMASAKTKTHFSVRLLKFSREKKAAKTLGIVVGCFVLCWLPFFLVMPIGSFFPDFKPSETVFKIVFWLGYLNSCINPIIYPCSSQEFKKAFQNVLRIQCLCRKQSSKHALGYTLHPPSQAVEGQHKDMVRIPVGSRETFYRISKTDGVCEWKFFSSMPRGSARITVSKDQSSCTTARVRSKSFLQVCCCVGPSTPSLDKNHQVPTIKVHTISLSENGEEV
T8 sequence (P21917 whole entry): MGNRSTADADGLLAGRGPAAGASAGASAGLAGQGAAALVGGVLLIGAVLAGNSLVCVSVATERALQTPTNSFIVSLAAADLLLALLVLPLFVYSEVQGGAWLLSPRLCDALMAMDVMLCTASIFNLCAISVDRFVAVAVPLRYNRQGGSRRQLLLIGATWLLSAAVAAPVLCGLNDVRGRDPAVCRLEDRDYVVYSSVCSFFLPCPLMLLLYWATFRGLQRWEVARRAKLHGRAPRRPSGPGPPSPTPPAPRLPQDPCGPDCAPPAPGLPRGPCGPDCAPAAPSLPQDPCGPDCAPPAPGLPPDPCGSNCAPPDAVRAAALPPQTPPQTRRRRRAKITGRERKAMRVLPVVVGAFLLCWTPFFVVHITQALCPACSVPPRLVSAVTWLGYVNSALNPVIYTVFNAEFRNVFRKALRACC
T7 sequence (P28221 whole entry): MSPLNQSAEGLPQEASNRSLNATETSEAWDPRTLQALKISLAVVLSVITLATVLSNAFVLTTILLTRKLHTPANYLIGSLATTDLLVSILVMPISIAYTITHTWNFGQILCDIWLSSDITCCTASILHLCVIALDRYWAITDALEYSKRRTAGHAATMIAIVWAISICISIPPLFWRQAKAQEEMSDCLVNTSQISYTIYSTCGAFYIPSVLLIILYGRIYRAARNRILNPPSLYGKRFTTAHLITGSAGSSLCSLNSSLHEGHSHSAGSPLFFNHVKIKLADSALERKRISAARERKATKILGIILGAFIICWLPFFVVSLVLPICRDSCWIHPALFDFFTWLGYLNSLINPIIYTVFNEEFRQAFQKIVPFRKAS
T5 sequence (P35462 whole entry): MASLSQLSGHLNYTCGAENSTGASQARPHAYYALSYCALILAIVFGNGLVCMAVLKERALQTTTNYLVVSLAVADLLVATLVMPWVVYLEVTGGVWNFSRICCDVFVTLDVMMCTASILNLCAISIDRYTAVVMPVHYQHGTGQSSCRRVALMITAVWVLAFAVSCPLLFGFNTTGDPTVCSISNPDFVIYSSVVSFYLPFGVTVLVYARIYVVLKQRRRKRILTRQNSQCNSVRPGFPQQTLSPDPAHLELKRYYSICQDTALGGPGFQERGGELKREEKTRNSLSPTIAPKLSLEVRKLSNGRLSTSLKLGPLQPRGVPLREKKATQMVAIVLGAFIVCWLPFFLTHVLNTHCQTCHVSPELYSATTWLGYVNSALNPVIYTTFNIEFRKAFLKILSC

Turning to `CN1C[C@H](C(=O)N[C@]2(C)O[C@@]3(O)[C@@H]4CC[C@@H](O)N4C(=O)[C@H](Cc4ccccc4)N3C2=O)C[C@@H]2c3cccc4[nH]c(C(F)(F)F)c(c34)C[C@H]21` [8′OH-2-CF3-DHE, 8′-Hydroxy-2-CF3-dihydroergotamine], the IC50 is > 10000 nM in assay [1]; > 10000 nM in assay [2]; > 10000 nM in assay [3]; 39.5 nM in assay [6]; > 10000 nM in assay [8]. Also, the “Activity (Agonism: EC50; Antagonism: IC50), 5-HT1F” value in assay [4] is recorded as “Inactive”. In addition, the EC50 in assay [5] turned out to be 32.3 nM; in assay [7], 5.27 nM.

A word on the IC50: it is the concentration at which inhibition is half-maximal. What is called EC50 is the concentration at which the effect is half-maximal.
